The text below walks through data of patent publication US8993586B2, “N1/N2-lactam acetyl-CoA carboxylase inhibitors” (Pfizer Inc., priority 2010, dated 2015).

Assay [1] addresses recombinant human ACC2 (rhACC2) (Homo sapiens (Human), UniProt O00763). Kind of assay: recombinant hACC2 Transcreener ADP detection FP assay. The assay is classed as biochemical. The note with it: 50 uM ATP, 50 min at 25° C. On the procedure: (§1) For example direct inhibition of ACC activity, for the compound of Formula (I) was determined using preparations of recombinant human ACC1 (rhACC1) and recombinant human ACC2 (rhACC2).
[3] Preparation of rhACC2. Human ACC2 inhibition was measured using purified recombinant human ACC2 (hrACC2). Briefly, a full length Cytomax clone of ACC2 was purchased from Cambridge Bioscience Limited and was sequenced and subcloned into PCDNA5 FRT TO-TOPO (Invitrogen, Carlsbad, Calif.). The ACC2 was expressed in CHO cells by tetracycline induction and harvested in 5 liters of DMEM/F12 with glutamine, biotin, hygromycin and blasticidin with 1 μg/mL tetracycline (Invitrogen, Carlsbad, Calif.). The conditioned medium containing ACC2 was then applied to a Softlink Soft Release Avidin column (Promega, Madison, Wis.) and eluted with 5 mM biotin. […] The purified ACC2 was dialyzed in 50 mM Tris, 200 mM NaCl, 4 mM DTT, 2 mM EDTA, and 5% glycerol. […] For measurement of ACC2 activity and assessment of ACC2 inhibition, test compounds were dissolved in DMSO and added to the rhACC2 enzyme as a 5× stock with a final DMSO concentration of 1%.
[4] Measurement of human ACC2 inhibition. hACC2 was assayed in a Costar #3676 (Costar, Cambridge, Mass.) 384-well plate using the Transcreener ADP detection FP assay kit (Bellbrook Labs, Madison, Wis.) using the manufacturer's recommended conditions for a 50 uM ATP reaction. The final conditions for the assay were 50 mM HEPES, pH 7.2, 5 mM MgCl2, 5 mM tripotassium citrate, 2 mM DTT, 0.1 mg/mL BSA, 30 μM acetyl-CoA, 50 μM ATP, and 8 mM KHCO3 Typically, a 10 μl reaction was run for 50 min at 25° C., and 10 μl of Transcreener stop and detect buffer was added and the combination incubated at room temp for an additional 1 hour. The data was acquired on an Envision Fluorescence reader (PerkinElmer) using a 620 excitation Cy5 FP general dual mirror, 620 excitation Cy5 FP filter, 688 emission (S) and a 688 (P) emission filter.

Assay [2] deals with recombinant human ACC1 (rhACC1) (Homo sapiens (Human), UniProt Q13085). Kind of assay: recombinant hACC1 Transcreener ADP detection FP assay. The assay is classed as biochemical. The settings on record: 50 μM ATP, 120 min at 25° C. On the procedure:
as §1
[1] Preparation of rhACC1. Two liters of SF9 cells, infected with recombinant baculovirus containing full length human ACC1 cDNA, were suspended in ice-cold lysis buffer (25 mM Tris, pH 7.5; 150 mM NaCl; 10% glycerol; 5 mM imidazole (EMD Bioscience; Gibbstown, N.J.); 2 mM TCEP (BioVectra; Charlottetown, Canada); Benzonase nuclease (10000 U/100 g cell paste; Novagen; Madison, Wis.); EDTA-free protease inhibitor cocktail (1 tab/50 mL; Roche Diagnostics; Mannheim, Germany). Cells were lysed by 3 cycles of freeze-thaw and centrifuged at 40,000×g for 40 minutes (4° C.). Supernatant was directly loaded onto a HisTrap FF crude column (GE Healthcare; Piscataway, N.J.) and eluted with an imidazole gradient up to 0.5 M over 20 column volumes (CV). ACC1-containing fractions were pooled and diluted 1:5 with 25 mM Tris, pH 7.5, 2 mM TCEP, 10% glycerol and direct loaded onto a CaptoQ (GE Healthcare) column and eluted with an NaCl gradient up to 1 M over 20 CV's. Phosphate groups were removed from purified ACC1 by incubation with lambda phosphatase (100 U/10 μM target protein; New England Biolabs; Beverly, Mass.) for 14 hours at 4° C.; okadaic acid was added (1 μM final concentration; Roche Diagnostics) to inhibit the phosphatase. Purified ACC1 was exchanged into 25 mM Tris, pH 7.5, 2 mM TCEP, 10% glycerol, 0.5 M NaCl by 6 hour dialysis at 4° C. Aliquots were prepared and frozen at −80° C.
[2] Measurement of rhACC1 inhibition. hACC1 was assayed in a Costar #3676 (Costar, Cambridge, Mass.) 384-well plate using the Transcreener ADP detection FP assay kit (Bellbrook Labs, Madison, Wis.) using the manufacturer's recommended conditions for a 50 μM ATP reaction. The final conditions for the assay were 50 mM HEPES, pH 7.2, 10 mM MgCl2, 7.5 mM tripotassium citrate, 2 mM DTT, 0.1 mg/mL BSA, 30 μM acetyl-CoA, 50 μM ATP, and 10 mM KHCO3 Typically, a 10 μl reaction was run for 120 min at 25° C., and 10 μl of Transcreener stop and detect buffer was added and the combination incubated at room temp for an additional 1 hour. The data was acquired on a Envision Fluorescence reader (PerkinElmer) using a 620 excitation Cy5 FP general dual mirror, 620 excitation Cy5 FP filter, 688 emission (S) and a 688 (P) emission filter.

Chain of recombinant human ACC2 (rhACC2) (O00763 whole entry V2141I): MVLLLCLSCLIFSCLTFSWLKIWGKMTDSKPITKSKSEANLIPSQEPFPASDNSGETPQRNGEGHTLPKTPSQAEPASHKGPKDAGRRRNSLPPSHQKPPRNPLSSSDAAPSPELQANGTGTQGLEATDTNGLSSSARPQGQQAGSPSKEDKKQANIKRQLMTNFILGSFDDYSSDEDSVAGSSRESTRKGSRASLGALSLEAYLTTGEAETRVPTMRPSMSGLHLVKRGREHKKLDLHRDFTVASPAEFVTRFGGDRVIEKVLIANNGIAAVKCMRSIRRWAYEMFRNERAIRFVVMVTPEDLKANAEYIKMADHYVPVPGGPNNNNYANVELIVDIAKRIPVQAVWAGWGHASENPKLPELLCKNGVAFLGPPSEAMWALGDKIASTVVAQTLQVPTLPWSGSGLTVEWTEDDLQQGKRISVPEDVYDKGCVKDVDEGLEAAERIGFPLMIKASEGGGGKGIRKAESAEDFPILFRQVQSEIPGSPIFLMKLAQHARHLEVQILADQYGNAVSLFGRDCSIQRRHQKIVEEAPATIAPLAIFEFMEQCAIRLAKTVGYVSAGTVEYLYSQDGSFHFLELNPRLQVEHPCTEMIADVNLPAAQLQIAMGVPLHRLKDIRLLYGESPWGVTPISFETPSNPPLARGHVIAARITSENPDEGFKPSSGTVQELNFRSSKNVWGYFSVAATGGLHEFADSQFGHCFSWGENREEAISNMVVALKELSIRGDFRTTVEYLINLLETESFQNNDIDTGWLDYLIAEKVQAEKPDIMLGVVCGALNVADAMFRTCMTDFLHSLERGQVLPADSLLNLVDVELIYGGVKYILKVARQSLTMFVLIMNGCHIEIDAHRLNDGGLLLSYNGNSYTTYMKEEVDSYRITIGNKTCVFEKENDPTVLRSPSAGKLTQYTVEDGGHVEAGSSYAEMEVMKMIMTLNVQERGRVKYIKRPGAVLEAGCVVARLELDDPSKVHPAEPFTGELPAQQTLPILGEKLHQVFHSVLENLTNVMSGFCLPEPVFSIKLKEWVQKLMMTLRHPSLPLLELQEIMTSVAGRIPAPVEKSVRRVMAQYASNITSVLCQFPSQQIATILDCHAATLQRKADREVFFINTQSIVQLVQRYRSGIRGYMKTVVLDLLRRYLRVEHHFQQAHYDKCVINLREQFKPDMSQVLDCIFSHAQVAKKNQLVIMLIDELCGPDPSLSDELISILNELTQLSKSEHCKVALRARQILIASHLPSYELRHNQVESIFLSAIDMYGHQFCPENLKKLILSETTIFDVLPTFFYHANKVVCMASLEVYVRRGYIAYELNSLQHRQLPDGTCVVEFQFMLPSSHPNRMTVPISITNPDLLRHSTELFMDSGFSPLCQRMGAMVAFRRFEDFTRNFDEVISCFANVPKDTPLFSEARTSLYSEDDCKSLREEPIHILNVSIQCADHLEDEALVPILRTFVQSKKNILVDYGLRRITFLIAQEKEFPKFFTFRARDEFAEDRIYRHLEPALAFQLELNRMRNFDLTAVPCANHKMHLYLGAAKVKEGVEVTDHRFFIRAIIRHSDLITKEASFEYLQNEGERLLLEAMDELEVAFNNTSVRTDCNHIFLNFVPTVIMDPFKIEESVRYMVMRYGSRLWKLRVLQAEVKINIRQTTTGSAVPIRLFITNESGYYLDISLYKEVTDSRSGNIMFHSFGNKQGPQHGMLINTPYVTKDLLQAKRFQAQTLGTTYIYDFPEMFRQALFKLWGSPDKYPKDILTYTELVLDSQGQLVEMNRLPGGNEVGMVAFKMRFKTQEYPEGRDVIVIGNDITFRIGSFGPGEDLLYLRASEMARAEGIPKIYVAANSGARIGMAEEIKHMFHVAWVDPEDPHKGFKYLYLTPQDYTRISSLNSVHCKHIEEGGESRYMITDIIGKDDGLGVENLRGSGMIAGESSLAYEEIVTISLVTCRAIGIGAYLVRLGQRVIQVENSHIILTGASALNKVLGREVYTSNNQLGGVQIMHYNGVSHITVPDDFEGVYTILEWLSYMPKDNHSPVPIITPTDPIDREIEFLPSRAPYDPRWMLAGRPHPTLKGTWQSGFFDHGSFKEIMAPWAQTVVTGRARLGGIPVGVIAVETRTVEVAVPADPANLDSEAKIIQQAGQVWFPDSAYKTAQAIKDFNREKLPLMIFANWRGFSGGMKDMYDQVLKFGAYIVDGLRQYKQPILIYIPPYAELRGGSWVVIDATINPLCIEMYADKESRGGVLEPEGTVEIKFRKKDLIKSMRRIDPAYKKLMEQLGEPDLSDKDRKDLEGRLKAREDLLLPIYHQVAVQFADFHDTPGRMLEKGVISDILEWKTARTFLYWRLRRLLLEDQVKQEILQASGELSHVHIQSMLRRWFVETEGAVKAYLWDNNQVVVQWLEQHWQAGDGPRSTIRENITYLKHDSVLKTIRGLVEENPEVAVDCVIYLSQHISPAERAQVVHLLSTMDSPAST

`CCN(C)c1nccc2ccc(C(=O)N3CCC4(CC3)Cc3cn(C(C)(C)C)nc3C(=O)N4)cc12` [Example 117]: the IC50 – broadly, the point on the concentration scale where inhibition reaches its midpoint – in assay [1] was determined as 54 nM; in assay [2], 332 nM.
Turning to `Cc1cc(C(=O)N2CCC3(CC2)Cc2cnn(C(C)C)c2C(=O)N3)cc2c[nH]nc12` [Example 4], the figures for the half-maximal inhibitory concentration (IC50) in assay [1] and in assay [2] were 38 nM and 43 nM, respectively.
Take `Cc1n[nH]c2ccc(C(=O)N3CCC4(CC3)Cc3cnn(C(C)C)c3C(=O)N4)cc12` [Example 16]: the figures for the IC50 in assay [1] and in assay [2] were 90 nM and 118 nM, respectively.
For `COc1cc(C(=O)N2CCC3(CC2)Cc2cnn(C(C)C)c2C(=O)N3)nc2c(OC)cccc12` [Example 17], the IC50 in assay [1] was determined as 31 nM; in assay [2] it was 72 nM.
Take `CC(C)(C)n1cc2c(n1)C(=O)NC1(CCN(C(=O)c3ccc4c(N)n[nH]c4c3)CC1)C2` [Example 65]: the IC50 turned out to be 56 nM in assay [1] and 256 nM in assay [2].
For `CC(C)(C)Nc1nccc2ccc(C(=O)N3CCC4(CC3)Cc3cn(C(C)(C)C)nc3C(=O)N4)cc12` [Example 123, 2′-(tert-butyl)-1-(1-(tert-butylamino)isoquinoline-7-carbonyl)-4′,6′-dihydrospiro[piperidine-4,5′-pyrazolo[3,4-c]pyridin]-7′(2′H)-one], the half-maximal inhibitory concentration (IC50) in assay [1] worked out at 6.3 nM; in assay [2] it was 78 nM.
As to `Cc1cc(C(=O)N2CCC3(CC2)Cc2cn(C(C)(C)C)nc2C(=O)N3)cc2c(Cl)n[nH]c12` [Example 62], the values for the IC50 in assay [1] and in assay [2] were 2.1 nM and 8.4 nM, respectively.
In the case of `CCc1cc(C(=O)N2CCC3(CC2)Cc2cnn(C(C)C)c2C(=O)N3)cc2cn[nH]c12` [Example 14], the figures for the IC50 in assay [1] and in assay [2] were 91 nM and 131 nM, respectively.
Take `CC(C)(C)n1cc2c(n1)C(=O)NC1(CCN(C(=O)c3ccc4[nH]nc(N)c4c3)CC1)C2` [Example 61]: the results for the IC50 in assay [1] and in assay [2] were 13 nM and 94 nM, respectively.
For the compound `CC(C)(C)n1cc2c(n1)C(=O)NC1(CCN(C(=O)c3ccc4ccc(NC5CCC5)nc4c3)CC1)C2` [Example 109], the concentration for half-maximal inhibition (IC50) was found to be 1 nM in assay [1] and 3.4 nM in assay [2].
Consider `COc1ccc2ccc(C(=O)N3CCC4(CC3)Cc3cnn(C(C)C)c3C(=O)N4)cc2n1` [Example 28], for which the IC50 in assay [1] came to 56 nM; in assay [2], 158 nM.
As for `Cc1cc(C(=O)N2CCC3(CC2)Cc2cnn(C(C)(C)C)c2C(=O)N3)cc2cn[nH]c12` [Example 7], the IC50 in assay [1] was found to be 47 nM; in assay [2], 62 nM.
Turning to `CC(C)n1ncc2c1C(=O)NC1(CCN(C(=O)c3ccc4[nH]nc(Cl)c4c3)CC1)C2` [Example 34], the half-inhibitory concentration (IC50) in assay [1] was determined as 50 nM; in assay [2], 116 nM.
For `CNc1cc2ccc(C(=O)N3CCC4(CC3)Cc3cnn(C(C)C)c3C(=O)N4)cc2cn1` [Example 38], the IC50 in assay [1] came to 107 nM; in assay [2], 364 nM.
As to `COc1ccc(C)c2[nH]c(C(=O)N3CCC4(CC3)Cc3cn(C(C)(C)C)nc3C(=O)N4)cc12` [Example 56], the values for the half-maximal inhibitory concentration (IC50) in assay [1] and in assay [2] were 1.9 nM and 7.4 nM, respectively.
Take `Cc1cc(C(=O)N2CCC3(CC2)Cc2cn(C(C)C)nc2C(=O)N3)cc2cn[nH]c12` [Example 42]: the half-inhibitory concentration (IC50) in assay [1] came out at 29 nM; in assay [2], 68 nM.
Turning to `CC(C)(C)n1cc2c(n1)C(=O)NC1(CCN(C(=O)c3ccc4[nH]c(N)nc4c3)CC1)C2` [Example 77], the half-maximal inhibitory concentration (IC50) in assay [1] was 8.4 nM; in assay [2] it was 80 nM.
In the same order, the values of `COc1cccc2ccc(C(=O)N3CCC4(CC3)Cc3cn(C(C)(C)C)nc3C(=O)N4)cc12` [Example 70] are 2.4 nM and 5.8 nM.
Turning to `COCCNc1nccc2ccc(C(=O)N3CCC4(CC3)Cc3cn(C(C)(C)C)nc3C(=O)N4)cc12` [Example 120], the IC50 in assay [1] was 6.1 nM; in assay [2] it was 47 nM.
With `COc1cc(C(=O)N2CCC3(CC2)Cc2cn(C(C)(C)C)nc2C(=O)N3)cc2cn[nH]c12` [Example 99, 2′-tert-butyl-1-(7-methoxy-1H-indazole-5-carbonyl)-4′,6′-dihydrospiro[piperidine-4,5′-pyrazolo[3,4-c]pyridin]-7′(2′H)-one], the figures for the IC50 in assay [1] and in assay [2] were 5.6 nM and 23 nM, respectively.
In the same order, the values of `COc1cc(C(=O)N2CCC3(CC2)Cc2cn(C(C)(C)C)nc2C(=O)N3)cc2c(C)n[nH]c12` [Example 87] are 2.1 nM and 17 nM.
For the compound `CC(C)(C)n1cc2c(n1)C(=O)NC1(CCN(C(=O)c3ccc4[nH]nc(C#N)c4c3)CC1)C2` [Example 60], the IC50 in assay [1] is 14 nM; in assay [2], 43 nM.
The matching figures for `CC(C)(C)n1cc2c(n1)C(=O)NC1(CCN(C(=O)c3ccc4ccnc(NC5COC5)c4c3)CC1)C2` [Example 122]: 77 nM and 494 nM.
As to `CC(C)(C)n1cc2c(n1)C(=O)NC1(CCN(C(=O)c3ccc4ccc(NC5CC5)nc4c3)CC1)C2` [Example 106], the 50% inhibitory concentration (IC50) in assay [1] was found to be 2.6 nM; in assay [2] it was 7.5 nM.
In the same order, the values of `CC(C)(C)n1cc2c(n1)C(=O)NC1(CCN(C(=O)c3ccc4ccc(Cl)nc4c3)CC1)C2` [Example 104, 2′-tert-butyl-1-(2-chloroquinoline-7-carbonyl)-4′,6′-dihydrospiro[piperidine-4,5′-pyrazolo[3,4-c]pyridin]-7′(2′H)-one] are 16 nM and 89 nM.
The matching figures for `CNc1cc2cc(C(=O)N3CCC4(CC3)Cc3cn(C(C)(C)C)nc3C(=O)N4)ccc2cn1` [Example 73]: 5.5 nM and 48 nM.
For the compound `CC(C)n1ncc2c1C(=O)NC1(CCN(C(=O)c3cnc4c(Cl)c[nH]c4c3)CC1)C2` [Example 32], the results for the IC50 in assay [1] and in assay [2] were 56 nM and 154 nM, respectively.
`CC(C)(C)n1cc2c(n1)C(=O)NC1(CCN(C(=O)c3ccc4nc(N)ccc4c3)CC1)C2` [Example 58]: the values for the half-inhibitory concentration (IC50) in assay [1] and in assay [2] were 12 nM and 149 nM, respectively.
Take `CC(C)(C)n1cc2c(n1)C(=O)NC1(CCN(C(=O)c3ccc4ccnc(N)c4c3)CC1)C2` [Example 100, 1-(1-aminoisoquinoline-7-carbonyl)-2′-tert-butyl-4′,6′-dihydrospiro[piperidine-4,5′-pyrazolo[3,4-c]pyridin]-7′(2′H)-one]: the 50% inhibitory concentration (IC50) amounted to 21 nM in assay [1] and 62 nM in assay [2].
In the same order, the values of `COc1cccc2ncc(C(=O)N3CCC4(CC3)Cc3cn(C(C)(C)C)nc3C(=O)N4)cc12` [Example 74] are 3.2 nM and 18 nM.
`COc1nccc2ccc(C(=O)N3CCC4(CC3)Cc3cnn(C(C)C)c3C(=O)N4)cc12` [Example 30]: the results for the IC50 in assay [1] and in assay [2] were 30 nM and 98 nM, respectively.
Turning to `CC(C)n1ncc2c1C(=O)NC1(CCN(C(=O)c3cnc4[nH]ccc4c3)CC1)C2` [Example 9], the figures for the IC50 in assay [1] and in assay [2] were 560 nM and 648 nM, respectively.
Turning to `CNc1nc2cc(C(=O)N3CCC4(CC3)Cc3cn(C(C)(C)C)nc3C(=O)N4)ccc2[nH]1` [Example 75], the half-inhibitory concentration (IC50) in assay [1] was found to be 11 nM; in assay [2], 79 nM.
